“And” between values parts separate entries of the source, which are not always exact repeats. Identical values can stand only once.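 Five compound concentrations were applied to cells in 96-well plates for 48 hours; endpoints were derived by simple linear interpolation of the resulting dose-response curve. Here, GI50 denotes the concentration required for 50% inhibition of growth. The concentration for full growth arrest is given as TGI.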
Columns and labels:
Experiment in all cases: growth of human tumour cells (NCI), 48 h
UACC-62 melanoma = tested on: UACC-62 melanoma
HL-60(TB) leukemia = tested on: HL-60(TB) leukemia
OVCAR-5 ovarian = tested on: OVCAR-5 ovarian
LOX IMVI melanoma = tested on: LOX IMVI melanoma
NCI-H226 lung = tested on: NCI-H226 lung
RPMI-8226 leukemia = tested on: RPMI-8226 leukemia
NCI-H522 lung = tested on: NCI-H522 lung
SW-620 colon = tested on: SW-620 colon
DLD-1 colon = tested on: DLD-1 colon
KM20L2 colon = tested on: KM20L2 colon

| SMILES | GI50 (UACC-62 melanoma) | TGI (UACC-62 melanoma) | GI50 (HL-60(TB) leukemia) [µM] | TGI (HL-60(TB) leukemia) [µM] | GI50 (OVCAR-5 ovarian) [µM] | TGI (OVCAR-5 ovarian) | GI50 (LOX IMVI melanoma) [µM] | TGI (LOX IMVI melanoma) [µM] | GI50 (NCI-H226 lung) [µM] | TGI (NCI-H226 lung) [µM] | GI50 (RPMI-8226 leukemia) [µM] | TGI (RPMI-8226 leukemia) [µM] | GI50 (NCI-H522 lung) [µM] | TGI (NCI-H522 lung) | GI50 (SW-620 colon) [µM] | TGI (SW-620 colon) | TGI (DLD-1 colon) [µM] | TGI (KM20L2 colon) [µM] |
| --- | --- | --- | --- | --- | --- | --- | --- | --- | --- | --- | --- | --- | --- | --- | --- | --- | --- | --- |
| Oc1c(Cl)cc(Cl)c2ccc(Cn3cc(-c4ccc(C(F)(F)F)cc4)nn3)nc12 | 2.61 µM | 11.9 µM | 0.685 | 3.65 | 2.27 | 7.59 µM | 0.299 | 1.11 | 5.64 | 26.7 | 1.25 | 6.33 | 1.42 | 3.79 µM | 0.493 | 1.83 µM |  |  |
| CN1CCN(Cc2ccc(NC(=O)c3cncc(C#Cc4cnc(N)c5cccnc45)c3)cc2C(F)(F)F)CC1 | 0.182 µM | 0.956 µM | 0.223 | 1.17 | 0.537 | > 50 µM | 0.159 | 0.686 | 0.191 | > 50 | 0.603 | > 50 | 0.29 | > 50 µM | 0.262 | 2.9 µM |  |  |
| NC1=NN(c2ccccc2)C(=O)C1C(=O)C(=O)Nc1ccc(Cl)c(Cl)c1 (stereo unspecified) |  | > 100 µM |  | > 100 |  | > 100 µM |  |  |  | > 100 |  | > 100 |  | > 100 µM |  | > 100 µM | > 100 | > 100 |
| NS(=O)(=O)c1cc(C(=O)O)c(O)c2ccccc12 |  | > 100 µM |  | > 100 |  | > 100 µM |  | > 100 |  | > 100 |  | > 100 |  | > 100 µM |  | > 100 µM |  |  |
| COc1cc(C(=O)c2cnc(-c3cccc4[nH]ccc34)[nH]2)cc(OC)c1OC | 0.0509 µM and < 0.01 µM | 93.6 µM | < 0.01 | < 0.01 |  | > 100 µM |  | > 100 | 0.169 |  |  | 24.3 | 0.0369 |  |  | > 100 µM |  |  |
| CSc1nc2c(c(=O)n1C)CN(C1CCCCC1)C(=O)C(c1ccccc1)N2 (stereo unspecified) | 8.01 µM | 57.8 µM | 17.5 | 67.5 | > 100 | > 100 µM | 17.1 | > 100 | 77.3 | > 100 | 11.3 | > 100 | 11.9 | > 100 µM | 38.5 | > 100 µM |  |  |
| CC(=O)N1N=C(c2ccc(Nc3nc(Nc4ccc(F)cc4)nc(Nc4ccc(F)cc4)n3)cc2)CC1c1ccc(N(C)C)cc1 (stereo unspecified) | 2.95 µM | 12.3 µM | 2 | 6.12 | 29.5 | > 100 µM | 12.2 | 24.6 | 3.29 | 14.9 | 1.77 | 7.57 | 4.81 | 30 µM | 3.8 | 18.8 µM |  |  |
| COC(=O)c1oc2c(C(=O)/C=C/c3ccc(OC)cc3)c(OCCN(C)C)ccc2c1C | 12.3 µM | 27.1 µM | 1.88 | 6.01 | 15.8 | 32.9 µM | 4.52 | 17 | 13.1 | 27.8 | 3.83 | 20.5 | 5.39 | 20.2 µM | 2.4 | 7.43 µM |  |  |
| CO[C@H]1CC(O[C@@H]2/C(C)=C/C[C@@H]3C[C@@H](C[C@]4(CC[C@H](C)[C@@H](C5CCCCC5)O4)O3)OC(=O)[C@@H]3C=C(C)/C(=N/O)[C@H]4OC/C(=C\C=C\[C@@H]2C)[C@]43O)O[C@@H](C)C1O (stereo partly specified) | 0.786 µM | 1.54 µM | 1.01 | 2.27 | 0.917 | 2.02 µM | 0.651 | 1.28 | 0.73 | 1.43 | 0.944 | 2.72 | 1.12 | 3.13 µM | 0.777 | 1.5 µM |  |  |
| CNS(=O)(=O)NNS(=O)(=O)c1ccc(OC)cc1 |  | > 100 µM |  | > 100 |  |  |  | > 100 |  |  |  | > 100 |  | > 100 µM |  | > 100 µM | > 100 | > 100 |
| CCN(CC)CCCC(C)N/C(=C1\C(=O)NC(=O)\C1=C(/NC(C)CCCN(CC)CC)c1cccc(OC)c1)c1cccc(OC)c1 (stereo unspecified) | 0.859 µM | 1.62 µM | 0.968 | 2.49 | 1.16 | 3.42 µM | 0.676 | 1.49 | 1.29 | 5.9 | 0.949 | 2.29 | 0.755 | 1.69 µM | 0.512 | 3.65 µM |  |  |
| O=[N+]([O-])c1cc([N+](=O)[O-])c(Nn2c3ccccc3c3ccccc32)c([N+](=O)[O-])c1 | 0.338 µM | 5.67 µM and 1.59 µM | 0.227 |  | 0.338 | 26.7 µM and 13.5 µM | 0.339 | 11.7 | 0.357 | 7.5 |  | 0.56 | 0.253 | 1.88 µM and 0.838 µM | 0.366 | 23.7 µM and 3.56 µM |  |  |
| O=C(/C=C\c1cccc2ccccc12)c1ccc(Cl)cc1Cl |  | 34 µM |  | 41.1 |  | 72.3 µM |  |  |  | > 100 |  | 46.6 |  | 35.1 µM |  | 34.2 µM | 40.8 | 91.8 |
| COc1ccc(OC)c(/C=N/N=C(\N)NO)c1 |  | 26.9 µM |  | > 100 |  | > 100 µM |  | > 100 |  | > 100 |  |  |  | 35 µM |  | > 100 µM | > 100 |  |
| Cc1cc2c(-c3nc4ccccn4c3N)c(O)c(O)cc2c(O)c1-c1c(C)cc2c(-c3nc4ccccn4c3N)c(O)c(O)cc2c1O | 0.723 µM | 7.05 µM | 1.64 | > 25 | 1.69 | > 25 µM | 0.582 | > 25 | 1.44 | > 25 | 0.661 | > 25 | 0.625 | 4.88 µM | 0.988 | > 25 µM |  |  |
| COC(=O)[C@@]12CC(C(C)C)[C@H]3CC(C(=O)C=C1OC)[C@H]32 (stereo partly specified) |  | > 100 µM |  | > 100 |  | > 100 µM |  |  |  |  |  | > 100 |  |  |  | > 100 µM | > 100 | > 100 |
